Laboratory results from patent US20250136553A1, “ACYLSULFONAMIDE KAT6A INHIBITORS” (Olema Pharmaceuticals, Inc., priority 2023, published 2025).

molecular target: human-KAT6A (MYST domain 507-778 aa) (Homo sapiens (Human), UniProt Q92794); experiment: KAT6A biochemical assay (TR-FRET); settings: @ 1 μM; reported where IC50 could not be determined; read-out: Percent inhibition at specific concentration (KAT6A)
Excerpt: TR-FRET based methods were used for assaying compounds of the present invention for KAT6A enzyme inhibitory activity. TR-FRET is a homogeneous proximity assay where Europium-labelled anti-acetyl lysine antibody binds to the acetylated substrate labelled with biotin, which in turn binds to streptavidin-labelled APC fluorescence acceptor. Europium can transfer energy to APC in the complex and the interaction of two dye-labelled binding partners is detected by the energy transfer between a donor and an acceptor dye and the subsequent light emission by the acceptor dye. KAT6A transfer an acetyl group from acetyl CoA to lysine amino acids of histones/target proteins. […] The selected compound of the present invention and enzyme are incubated for 30 min on plate shaker at 300 rpm at 25° C. Next, 5 μL of substrate mix containing histone H4 peptide and acetyl-CoA in assay buffer is added to the plate. The final concentrations of H4 peptide and acetyl-CoA are 200 nM and 600 nM, respectively. Following 60 min reaction at 25° C. on plate shaker at 300 rpm, 5 μL of detection mix containing Europium-labelled anti-acetyl antibody and streptavidin-APC is added to the reaction wells. The plate is further incubated at 25° C. on shaker at 300 rpm and is read in TR-FRET mode (Ex:340 nm; Em: 615 nm and 665 nm) on a plate reader to achieve ˜5-7-fold activity. The percent inhibition was calculated from the ratio of the fluorescence (FL) intensities [(F665/F615)×10000) using the formula […]. IC50 values of the compounds were determined by fitting the dose-response data to sigmoidal curve fitting equation using Graph pad prism software V9.

Chain of human-KAT6A (MYST domain 507-778 aa) (Q92794 507-778): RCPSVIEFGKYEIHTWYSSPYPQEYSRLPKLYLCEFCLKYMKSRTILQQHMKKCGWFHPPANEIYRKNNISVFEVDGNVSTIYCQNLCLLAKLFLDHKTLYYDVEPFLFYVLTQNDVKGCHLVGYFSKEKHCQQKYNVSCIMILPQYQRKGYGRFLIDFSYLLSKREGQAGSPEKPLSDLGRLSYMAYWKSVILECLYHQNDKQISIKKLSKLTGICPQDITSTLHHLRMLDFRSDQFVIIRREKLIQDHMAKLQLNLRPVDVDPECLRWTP

| inhibition at 1 µM | SMILES |
| --- | --- |
| 16% | COc1cccc(OC)c1S(=O)(=O)NC(=O)c1ccc(Cn2cccn2)c(OC(F)F)n1 [Compound 215, 5-((1H-pyrazol-1-yl)methyl)-6-(difluoromethoxy)-N-((2,6-dimethoxyphenyl)sulfonyl)picolinamide] |

same assay, conditions: TR-FRET; histone H4 peptide 200 nM, acetyl-CoA 600 nM; read-out: KAT6A IC50

| IC50 | SMILES |
| --- | --- |
| 8 nM | COc1ccc(C2CC2)cc1S(=O)(=O)NC(=O)c1ccc(Cn2cccn2)c(OC)n1 [Compound 206, 5-((1H-pyrazol-1-yl)methyl)-N-((5-cyclopropyl-2-methoxyphenyl)sulfonyl)-6-methoxypicolinamide] |
| 10 nM | COc1ccc(C(F)(F)F)cc1S(=O)(=O)NC(=O)c1ccc(Cn2cccn2)c(OC)n1 [Compound 207, 5-((1H-pyrazol-1-yl)methyl)-6-methoxy-N-((2-methoxy-5-(trifluoromethyl)phenyl)sulfonyl)picolinamide] |
| 22 nM | COc1ccccc1S(=O)(=O)NC(=O)c1ccc(Cn2cccn2)c(OC)n1 [Compound 208, 5-((1H-pyrazol-1-yl)methyl)-6-methoxy-N-((2-methoxyphenyl)sulfonyl)picolinamide] |
| 71 nM | COc1cccc(OC)c1S(=O)(=O)NC(=O)c1ccc(Cn2cccn2)c(C)n1 [Compound 209, 5-((1H-pyrazol-1-yl)methyl)-N-((2,6-dimethoxyphenyl)sulfonyl)-6-methylpicolinamide] |
| 64 nM | CCc1ccc(OC)c(S(=O)(=O)NC(=O)c2cc(OC)c(Cn3cccn3)cn2)c1 [Compound 210, 5-((1H-pyrazol-1-yl)methyl)-N-((5-ethyl-2-methoxyphenyl)sulfonyl)-4-methoxypicolinamide] |
| 8 nM | COc1ccc2c(c1S(=O)(=O)NC(=O)c1ccc(Cn3cccn3)c(OC)n1)OCC2 [Compound 211, 5-((1H-pyrazol-1-yl)methyl)-6-methoxy-N-((6-methoxy-2,3-dihydrobenzofuran-7-yl)sulfonyl)picolinamide] |
| 140 nM | COc1cc(C(=O)NS(=O)(=O)c2c(OC)cccc2OC)ncc1Cn1cccn1 [Compound 212, 5-((1H-pyrazol-1-yl)methyl)-N-((2,6-dimethoxyphenyl)sulfonyl)-4-methoxypicolinamide] |
| 12 nM | COc1cc2c(cc1S(=O)(=O)NC(=O)c1ccc(Cn3cccn3)c(OC)n1)CCC2 [Compound 213, 5-((1H-pyrazol-1-yl)methyl)-6-methoxy-N-((6-methoxy-2,3-dihydro-1H-inden-5-yl)sulfonyl)picolinamide] |
| 12 nM | COc1ccc(C)cc1S(=O)(=O)NC(=O)c1ccc(Cn2cccn2)c(OC)n1 [Compound 214, 5-((1H-pyrazol-1-yl)methyl)-6-methoxy-N-((2-methoxy-5-methylphenyl)sulfonyl)picolinamide] |
| 12 nM | COc1ccc2c(c1S(=O)(=O)NC(=O)c1ccc(Cn3cccn3)c(OC)n1)CCC2 [Compound 216, 5-((1H-pyrazol-1-yl)methyl)-6-methoxy-N-((5-methoxy-2,3-dihydro-1H-inden-4-yl)sulfonyl)picolinamide] |
| 11 nM | COc1ccc2c(c1S(=O)(=O)NC(=O)c1ccc(Cn3cccn3)c(OC)n1)CCCC2 [Compound 217, 5-((1H-pyrazol-1-yl)methyl)-6-methoxy-N-((2-methoxy-5,6,7,8-tetrahydronaphthalen-1-yl)sulfonyl)picolinamide] |
| 8 nM | CCOc1cccc(OC)c1S(=O)(=O)NC(=O)c1ccc(Cn2cccn2)c(OC)n1 [Compound 218, 5-((1H-pyrazol-1-yl)methyl)-N-((2-ethoxy-6-methoxyphenyl)sulfonyl)-6-methoxypicolinamide] |
| 7 nM | COc1cccc(OC(F)F)c1S(=O)(=O)NC(=O)c1ccc(Cn2cccn2)c(OC)n1 [Compound 220, 5-((1H-pyrazol-1-yl)methyl)-N-((2-(difluoromethoxy)-6-methoxyphenyl)sulfonyl)-6-methoxypicolinamide] |
| 5 nM | COc1cccc(OC(C)C)c1S(=O)(=O)NC(=O)c1ccc(Cn2cccn2)c(OC)n1 [Compound 221, 5-((1H-pyrazol-1-yl)methyl)-N-((2-isopropoxy-6-methoxyphenyl)sulfonyl)-6-methoxypicolinamide] |
| 18 nM | COc1ccc(C)c(OC)c1S(=O)(=O)NC(=O)c1ccc(Cn2cccn2)c(OC)n1 [Compound 222, 5-((1H-pyrazol-1-yl)methyl)-N-((2,6-dimethoxy-3-methylphenyl)sulfonyl)-6-methoxypicolinamide] |

The remaining lines, values behind:

| SMILES | IC50 |
| --- | --- |
| COc1cc(C(=O)NS(=O)(=O)c2cc(C(C)(C)O)ccc2OC)ccc1Cn1cccn1 [Compound 54, 4-((1H-pyrazol-1-yl)methyl)-N-((5-(2-hydroxypropan-2-yl)-2-methoxyphenyl)sulfonyl)-3-methoxybenzamide] | 3 nM |
| COc1cc(C(=O)NS(=O)(=O)c2c(OC)cccc2OC(C)C)ccc1Cn1cccn1 [Compound 55, 4-((1H-pyrazol-1-yl)methyl)-N-((2-isopropoxy-6-methoxyphenyl)sulfonyl)-3-methoxybenzamide] | 11 nM |
| COc1cc(C(=O)NS(=O)(=O)c2c(OC)ccc3c2CCCC3)ccc1Cn1cccn1 [Compound 57, 4-((1H-pyrazol-1-yl)methyl)-3-methoxy-N-((2-methoxy-5,6,7,8-tetrahydronaphthalen-1-yl)sulfonyl)benzamide] | 11 nM |
| COc1cc(C(=O)NS(=O)(=O)c2c(OC)cccc2OC)ccc1COc1nccs1 [Compound 58, N-((2,6-dimethoxyphenyl)sulfonyl)-3-methoxy-4-((thiazol-2-yloxy)methyl)benzamide] | 177 nM |
| COc1cc(C(=O)NS(=O)(=O)c2c(OC)cccc2OC)ccc1Oc1nccs1 [Compound 59, N-((2,6-dimethoxyphenyl)sulfonyl)-3-methoxy-4-(thiazol-2-yloxy)benzamide] | 33 nM |
| COc1cc(C(=O)NS(=O)(=O)c2c(OC)ccc(C)c2OC)ccc1Cn1cccn1 [Compound 60, 4-((1H-pyrazol-1-yl)methyl)-N-((2,6-dimethoxy-3-methylphenyl)sulfonyl)-3-methoxybenzamide] | 8 nM |
| COc1cc(C(=O)NS(=O)(=O)c2c(OC)ccc(C3CC3)c2OC)ccc1Cn1cccn1 [Compound 61, 4-((1H-pyrazol-1-yl)methyl)-N-((3-cyclopropyl-2,6-dimethoxyphenyl)sulfonyl)-3-methoxybenzamide] | 6 nM |
| CCc1ccc(OC)c(S(=O)(=O)NC(=O)c2ccc(Cn3cccn3)c(OC)c2)c1OC [Compound 66, 4-((1H-pyrazol-1-yl)methyl)-N-((3-ethyl-2,6-dimethoxyphenyl)sulfonyl)-3-methoxybenzamide] | 13 nM |
| CCOc1cccc(OC)c1S(=O)(=O)NC(=O)c1ccc(Cn2cccn2)c(OC)c1 [Compound 67, 4-((1H-pyrazol-1-yl)methyl)-N-((2-ethoxy-6-methoxyphenyl)sulfonyl)-3-methoxybenzamide] | 11 nM |
| COc1cc(C(=O)NS(=O)(=O)c2c(OC)cccc2OCC(F)(F)F)ccc1Cn1cccn1 [Compound 68, 4-((1H-pyrazol-1-yl)methyl)-3-methoxy-N-((2-methoxy-6-(2,2,2-trifluoroethoxy)phenyl)sulfonyl)benzamide] | 23 nM |
| COc1cccc(OC)c1S(=O)(=O)NC(=O)c1ccc(Cn2cccn2)c(OC)c1F [Compound 69, 4-((1H-pyrazol-1-yl)methyl)-N-((2,6-dimethoxyphenyl)sulfonyl)-2-fluoro-3-methoxybenzamide] | 114 nM |
| COc1cc(C(=O)NS(=N)(=O)c2c(OC)cccc2OC)ccc1Cn1cccn1 (stereo not drawn) [Compound 71, 4-((1H-pyrazol-1-yl)methyl)-N-(2,6-dimethoxyphenylsulfonimidoyl)-3-methoxybenzamide] | 34 nM |
| COc1ccc(C(C)(C)C)cc1S(=O)(=O)NC(=O)c1ccc(Cn2cccn2)cn1 [Compound 201, 5-((1H-pyrazol-1-yl)methyl)-N-((5-(tert-butyl)-2-methoxyphenyl)sulfonyl)picolinamide] | 731 nM |
| COc1cc(C(=O)NS(=O)(=O)c2c(OC)cccc2OC)cnc1Cn1cccn1 [Compound 202, 6-((1H-pyrazol-1-yl)methyl)-N-((2,6-dimethoxyphenyl)sulfonyl)-5-methoxynicotinamide] | 104 nM |
| CCc1ccc(OC)c(S(=O)(=O)NC(=O)c2ccc(Cn3cccn3)c(OC)n2)c1 [Compound 204, 5-((1H-pyrazol-1-yl)methyl)-N-((5-ethyl-2-methoxyphenyl)sulfonyl)-6-methoxypicolinamide] | 6 nM |
| COc1ccc(C(C)(C)C)cc1S(=O)(=O)NC(=O)c1ccc(Cn2cccn2)c(OC)n1 [Compound 205, 5-((1H-pyrazol-1-yl)methyl)-N-((5-(tert-butyl)-2-methoxyphenyl)sulfonyl)-6-methoxypicolinamide] | 8 nM |
| COc1cccc(OC2CCC2)c1S(=O)(=O)NC(=O)c1ccc(Cn2cccn2)c(OC)n1 [Compound 219, 5-((1H-pyrazol-1-yl)methyl)-N-((2-cyclobutoxy-6-methoxyphenyl)sulfonyl)-6-methoxypicolinamide] | 9 nM |
